Data from ChEMBL document CHEMBL1146052, “Inhibitors of epidermal growth factor receptor tyrosine kinase: Novel C-5 substituted anilinoquinazolines designed to target the ribose pocket” (Bioorg Med Chem Lett, 2006).

Key:
[1] = molecular target: Epidermal growth factor receptor (Homo sapiens, UniProt P00533); experiment: Inhibitory activity against EGFR
[2] = Bioavailability in rat at 5 mg/kg, po and 2 mg/kg, iv; type: ADME, organism-based; details: in vivo
[3] = Half life in mouse at 5 mg/kg, po and 2 mg/kg, iv; type: ADME, organism-based; details: in vivo
[4] = Volume of distribution in rat at 5 mg/kg, po and 2 mg/kg, iv; type: ADME, organism-based; details: in vivo, read-out: Vdss
[5] = Bioavailability in mouse at 5 mg/kg, po and 2 mg/kg, iv; type: ADME, organism-based; details: in vivo
[6] = Percent of unbound ligand in mouse plasma at 5 mg/kg, po and 2 mg/kg, iv; type: ADME, organism-based
[7] = Plasma clearance in mouse at 5 mg/kg, po and 2 mg/kg, iv; type: ADME, organism-based
LoVo = experiment: Inhibition of tumor volume in human LoVo cell xenografted in mice at 100 mg/kg, po; details: Mus musculus, read-out: Inhibition
[8] = Percent of unbound ligand in rat plasma at 5 mg/kg, po and 2 mg/kg, iv; type: ADME, organism-based
[9] = Plasma clearance in rat at 5 mg/kg, po and 2 mg/kg, iv; type: ADME, organism-based
[10] = Volume of distribution in mouse at 5 mg/kg, po and 2 mg/kg, iv; type: ADME, organism-based; details: in vivo, read-out: Vdss
[11] = Half life in rat at 5 mg/kg, po and 2 mg/kg, iv; type: ADME, organism-based; details: in vivo

Chain of Epidermal growth factor receptor (P00533 whole entry): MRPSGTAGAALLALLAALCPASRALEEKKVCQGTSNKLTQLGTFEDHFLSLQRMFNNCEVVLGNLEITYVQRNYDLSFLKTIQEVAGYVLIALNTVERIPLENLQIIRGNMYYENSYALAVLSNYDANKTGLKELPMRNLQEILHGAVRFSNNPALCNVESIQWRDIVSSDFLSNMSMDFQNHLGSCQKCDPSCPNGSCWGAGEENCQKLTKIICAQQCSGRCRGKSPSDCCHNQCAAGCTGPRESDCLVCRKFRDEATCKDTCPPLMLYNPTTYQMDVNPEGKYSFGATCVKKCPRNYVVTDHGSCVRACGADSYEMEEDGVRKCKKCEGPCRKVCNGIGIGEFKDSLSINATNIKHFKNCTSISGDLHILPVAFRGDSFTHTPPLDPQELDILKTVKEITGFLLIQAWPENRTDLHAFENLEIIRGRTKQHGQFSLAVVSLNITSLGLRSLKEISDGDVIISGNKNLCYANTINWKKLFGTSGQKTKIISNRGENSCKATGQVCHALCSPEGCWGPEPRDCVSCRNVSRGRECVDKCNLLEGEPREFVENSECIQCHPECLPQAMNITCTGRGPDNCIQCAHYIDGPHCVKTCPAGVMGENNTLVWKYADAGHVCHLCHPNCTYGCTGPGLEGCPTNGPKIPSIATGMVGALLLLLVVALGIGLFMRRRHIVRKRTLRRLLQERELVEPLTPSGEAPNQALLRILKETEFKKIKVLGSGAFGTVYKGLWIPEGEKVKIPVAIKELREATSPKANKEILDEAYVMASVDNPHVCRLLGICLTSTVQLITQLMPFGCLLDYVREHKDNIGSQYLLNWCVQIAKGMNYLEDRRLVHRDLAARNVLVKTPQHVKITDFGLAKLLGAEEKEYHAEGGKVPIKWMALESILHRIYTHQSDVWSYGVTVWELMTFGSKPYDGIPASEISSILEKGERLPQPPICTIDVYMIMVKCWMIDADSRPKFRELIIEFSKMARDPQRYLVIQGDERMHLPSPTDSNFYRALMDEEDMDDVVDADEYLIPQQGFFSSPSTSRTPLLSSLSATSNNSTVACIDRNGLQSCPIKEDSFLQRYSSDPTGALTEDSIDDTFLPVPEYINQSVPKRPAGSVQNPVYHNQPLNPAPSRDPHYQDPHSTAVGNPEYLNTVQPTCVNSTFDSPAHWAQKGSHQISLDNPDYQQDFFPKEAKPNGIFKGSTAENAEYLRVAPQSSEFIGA

Row | Compound | IC50 [1] [nM] | other results
1 | COc1cc(OC2CCN(C(C)=O)CC2)c2c(Nc3ccc(F)c(Cl)c3)ncnc2c1 | 873 | –
2 | COc1cc(OC2CCN(S(C)(=O)=O)CC2)c2c(Nc3ccc(F)c(Cl)c3)ncnc2c1 | 9600 | –
3 | COCCOc1cc(OC2CCOCC2)c2c(Nc3ccc(F)c(Cl)c3)ncnc2c1 | 671 | –
4 | COc1cc(OC(C)C)c2c(Nc3ccc(F)c(Cl)c3)ncnc2c1 | 8070 | –
5 | COc1cc(OC2CCOCC2)c2c(Nc3ccc(F)c(Cl)c3)ncnc2c1 | 1380 | –
6 | COc1ccc2ncnc(Nc3ccc(F)c(Cl)c3)c2c1OC1CCN(C)CC1 | 225 | –
7 | CN1CCN(CCCOc2cc(OC3CCOCC3)c3c(Nc4ccc(F)c(Cl)c4)ncnc3c2)CC1 | 66 | –

These reach a lower IC50 [1]. Values come first.

Row | IC50 [1] [nM] | Compound | other results
8 | 3 | CN1CCC(Oc2cccc3ncnc(Nc4ccc(F)c(Cl)c4)c23)CC1 | –
9 | < 2 | CCN1CCC(Oc2cc(OC)cc3ncnc(Nc4ccc(F)c(Cl)c4)c23)CC1 | –
10 | < 2 | CCCN1CCC(Oc2cc(OC)cc3ncnc(Nc4ccc(F)c(Cl)c4)c23)CC1 | –
11 | 21 | COc1cc(OC2CCN(C)CC2)c2c(Nc3ccc(F)c(Cl)c3)ncnc2c1 | bioavailability [2]: 63%; half-life [3]: 5.2 h; Vd [4]: 12.3 L/kg; bioavailability [5]: 103%; fraction unbound [6]: 0.0311; clearance [7]: 20 mL/min/kg; inhibition in vivo at 100 mg/kg (LoVo): 60%; fraction unbound [8]: 0.0251; clearance [9]: 66 mL/min/kg; Vd [10]: 8.2 L/kg; half-life [11]: 2.9 h
12 | 10 | COc1cc(OC2CCNCC2)c2c(Nc3ccc(F)c(Cl)c3)ncnc2c1 | –
